“And” between values parts separate entries of the source, which are not always exact repeats. Identical values can stand only once.
Test system: citric acid (1M) evoked cough in guinea pigs
Experiment: Citric acid (1M) aerosol-evoked coughs and sneezes in conscious guinea pigs after oral pre-treatment
Type: in vivo, Male Dunkin Hartley guinea pigs
Protocol: The guinea pig species used in one study was twenty four Male Dunkin Hartley guinea pigs, each weighing between 300 and 350 g, which were supplied by Marshall Bioresources Ltd, UK.
A test compound, Ifenprodil, and Gefapixant (in powder form) were prepared and formulated by initially adding 100% propylene glycol at the required volume for the final treatment buffer. The additional buffer ingredients were added in a stepwise fashion, initially solutol and then captisol. Each ingredient was added in a volume equivalent to that which is required for the final volume of treatment buffer for the stock formulation.
In particular, for Gefapixant, this was 0.7 mg/mL, a concentration that delivers 3.5 mg/Kg in a dose volume of 5 mL/Kg. For Ifenprodil, this was 0.3 mg/mL, a concentration that delivers 1.5 mg/Kg in a dose volume of 5 mL/Kg.
Prior to the addition of each buffer ingredient, the test compound formulations were sonicated for 15 min using a Branson 1510 Sonicator. Afterwards, the initial formulation of the test compound and Gefapixant were diluted with a prepared buffer vehicle to provide additional dosing formulations. This was 0.01 to 0.2 mg/ml, preferably 0.06 mg/mL, a dose that delivers 0.3 mg/Kg in a dose volume of 5 mL/Kg.
The final test compound buffer vehicle comprised of 10:10:80 mix of propylene glycol:20% Solutol in PBS:5% Captisol in PBS.
All final test and control formulations were sonicated for 30 min prior to dosing to generate an even suspension or to ensure that the formulation had visibly dissolved.
The animals were first pre-treated (5 mL/Kg, p.o.) with the vehicle, the test compound, or Gefapixant prior to tussive agent (citric acid) exposure, using the amounts set out in Table 1 below. In each case, the route of administration of the treatment was oral.
Animals receiving Gefapixant (3.5 mg/Kg) were dosed 2 hours prior to tussive agent exposure. Animals receiving Ifenprodil (1.5 mg/Kg) were dosed 30 minutes prior to tussive agent exposure.
10 min prior to the tussive evaluation, each animal was individually placed into a purpose built exposure chamber with a supplied airflow through a nebuliser of 2 L/min, and allowed to settle into its new environment.
Following the acclimatisation period, each animal was then exposed for 10 min to an aerosol of 1M citric acid using an ultrasonic nebuliser (Aerogen) set at a nominal liquid consumption rate of 0.6 mL/min.
Coughs and sneezes elicited during the 10 minute aerosol of 1M citric acid, and a subsequent 5 minute observation period, were recorded manually to monitor the animal's welfare. […] The data was analysed for onset of cough, cough numbers and frequency, and sneezes.
The following measurements and assessments were taken for each guinea pig: • Mean total number of coughs evoked in each treatment group • Mean onset of first cough in each group • Mean number of coughs per minute during citric acid exposure in each treatment group
Inter-group deviations were statistically analyzed by a one-way analysis of variance (ANOVA). In the case of significant difference in the mean values among the different levels of treatment, comparisons versus the citric acid vehicle group were carried out using the Dunnett's test. p<0.05 was considered statistically significant.

[1] = Mean of n=6 animals, 10 min Citric acid (1M) exposure, Gefapixant 3.5 mg/Kg p.o., Ifenprodil 1.5 mg/Kg
[2] = Mean of n=6 animals, Post Exposure (5 mins) after 10 min Citric acid (1M), Gefapixant 3.5 mg/Kg p.o., Ifenprodil 1.5 mg/Kg
[3] = Total of n=6 animals, 10 min Citric acid (1M) exposure, Gefapixant 3.5 mg/Kg p.o., Ifenprodil 1.5 mg/Kg
[4] = Total of n=6 animals, Post Exposure (5 mins) after 10 min Citric acid (1M), Gefapixant 3.5 mg/Kg p.o., Ifenprodil 1.5 mg/Kg
[5] = individual animals (ID 1-6), 10 min Citric acid (1M) exposure, Gefapixant 3.5 mg/Kg p.o., Ifenprodil 1.5 mg/Kg
[6] = individual animals (ID 1-6), Post Exposure (5 mins) after 10 min Citric acid (1M), Gefapixant 3.5 mg/Kg p.o., Ifenprodil 1.5 mg/Kg

COc1cc(C(C)C)c(Oc2cnc(N)nc2N)cc1S(N)(=O)=O [Gefapixant]
Total Coughs, Mean (10 min citric acid (1M) exposure + 5 min post exposure, group mean, n=6): 23.67 | Total Coughs, individual animal (10 min citric acid (1M) exposure + 5 min post exposure, individual animals 1-6): 16 and 26 and 24 and 23 and 33 and 20 | average number of coughs per animal (total number of coughs) (10 min citric acid (1M) exposure + 5 min recovery, Gefapixant 3.5 mg/Kg p.o. 2 hrs prior, Ifenprodil 1.5 mg/Kg p.o. 30 min prior, n=6): 23.67 coughs per animal | reduction in mean cough frequency vs untreated control (Ifenprodil 1.5 mg/kg (p<0.01), Gefapixant 3.5 mg/kg (p<0.05)): 20% | Sneezes, Observation Period 0-1, group Mean [1]: 0.2 | Sneezes, Observation Period 1-2, group Mean [1]: 0.3 | Sneezes, Observation Period 2-3, group Mean [1]: 0.3 | Sneezes, Observation Period 3-4, group Mean [1]: 0.2 | Sneezes, Observation Period 4-5, group Mean [1]: 0.5 | Sneezes, Observation Period 5-6, group Mean [1]: 0.5 | Sneezes, Observation Period 6-7, group Mean [1]: 0.5 | Sneezes, Observation Period 7-8, group Mean [1]: 0.0 | Sneezes, Observation Period 8-9, group Mean [1]: 0.5 | Sneezes, Observation Period 9-10, group Mean [1]: 0.2 | Sneezes, Observation Period 10-11, group Mean [2]: 0.0 | Sneezes, Observation Period 11-12, group Mean [2]: 0.0 | Sneezes, Observation Period 12-13, group Mean [2]: 0.0 | Sneezes, Observation Period 13-14, group Mean [2]: 0.0 | Sneezes, Observation Period 14-15, group Mean [2]: 0.0 | Total Sneezes, group Mean (Mean of n=6 animals, whole observation period 0-15 (10 min Citric acid (1M) exposure + Post Exposure 5 mins), Gefapixant 3.5 mg/Kg p.o., Ifenprodil 1.5 mg/Kg): 3.17 | Sneezes, Observation Period 0-1, group Total [3]: 1.0 | Sneezes, Observation Period 1-2, group Total [3]: 2.0 | Sneezes, Observation Period 2-3, group Total [3]: 2.0 | Sneezes, Observation Period 3-4, group Total [3]: 1.0 | Sneezes, Observation Period 4-5, group Total [3]: 3.0 | Sneezes, Observation Period 5-6, group Total [3]: 3.0 | Sneezes, Observation Period 6-7, group Total [3]: 3.0 | Sneezes, Observation Period 7-8, group Total [3]: 0.0 | Sneezes, Observation Period 8-9, group Total [3]: 3.0 | Sneezes, Observation Period 9-10, group Total [3]: 1.0 | Sneezes, Observation Period 10-11, group Total [4]: 0.0 | Sneezes, Observation Period 11-12, group Total [4]: 0.0 | Sneezes, Observation Period 12-13, group Total [4]: 0.0 | Sneezes, Observation Period 13-14, group Total [4]: 0.0 | Sneezes, Observation Period 14-15, group Total [4]: 0.0 | first onset of cough (citric acid (1M) exposure, Gefapixant 3.5 mg/Kg p.o., Ifenprodil 1.5 mg/Kg p.o., group mean, n=6): 49.7 s | average number of sneezes per animal (citric acid (1M) exposure, Gefapixant 3.5 mg/Kg p.o., Ifenprodil 1.5 mg/Kg p.o., n=6): 3.17 sneezes per animal | Onset (sec), Mean (citric acid (1M) exposure, group mean, n=6): 49.7 s | Onset (sec), individual animal (citric acid (1M) exposure, individual animals 1-6): 72 s and 24 s and 64 s and 36 s and 32 s and 70 s | Sneezes, Observation Period 0-1 [5]: 0 (5×) and 1 | Sneezes, Observation Period 1-2 [5]: 0 (4×) and 1 (2×) | Sneezes, Observation Period 2-3 [5]: 1 (2×) and 0 (4×) | Sneezes, Observation Period 3-4 [5]: 0 (5×) and 1 | Sneezes, Observation Period 4-5 [5]: 1 (3×) and 0 (3×) | Sneezes, Observation Period 5-6 [5]: 0 (3×) and 1 (3×) | Sneezes, Observation Period 6-7 [5]: 1 (3×) and 0 (3×) | Sneezes, Observation Period 7-8 [5]: 0 | Sneezes, Observation Period 8-9 [5]: 1 (3×) and 0 (3×) | Sneezes, Observation Period 9-10 [5]: 0 (5×) and 1 | Sneezes, Observation Period 10-11 [6]: 0 | Sneezes, Observation Period 11-12 [6]: 0 | Sneezes, Observation Period 12-13 [6]: 0 | Sneezes, Observation Period 13-14 [6]: 0 | Sneezes, Observation Period 14-15 [6]: 0 | Total Sneezes (individual animals (ID 1-6), whole observation period 0-15 (10 min Citric acid (1M) exposure + Post Exposure 5 mins), Gefapixant 3.5 mg/Kg p.o., Ifenprodil 1.5 mg/Kg): 4 (2×) and 3 and 5 and 2 and 1 | Cough, observation period 0-1, Mean (min 0-1 of citric acid (1M) exposure, group mean, n=6): 0.5 | Cough, observation period 0-1, individual animal (min 0-1 of citric acid (1M) exposure, individual animals 1-6): 0 (3×) and 1 (3×) | Cough, observation period 0-1, Total (min 0-1 of citric acid (1M) exposure, sum over 6 animals): 3.0 | Cough, observation period 1-2, Mean (min 1-2 of citric acid (1M) exposure, group mean, n=6): 2.0 | Cough, observation period 1-2, individual animal (min 1-2 of citric acid (1M) exposure, individual animals 1-6): 1 (2×) and 3 (2×) and 2 (2×) | Cough, observation period 1-2, Total (min 1-2 of citric acid (1M) exposure, sum over 6 animals): 12.0 | Cough, observation period 2-3, Mean (min 2-3 of citric acid (1M) exposure, group mean, n=6): 3.0 | Cough, observation period 2-3, individual animal (min 2-3 of citric acid (1M) exposure, individual animals 1-6): 1 and 3 (2×) and 4 and 5 and 2 | Cough, observation period 2-3, Total (min 2-3 of citric acid (1M) exposure, sum over 6 animals): 18.0 | Cough, observation period 3-4, Mean (min 3-4 of citric acid (1M) exposure, group mean, n=6): 2.3 | Cough, observation period 3-4, individual animal (min 3-4 of citric acid (1M) exposure, individual animals 1-6): 2 (3×) and 3 and 4 and 1 | Cough, observation period 3-4, Total (min 3-4 of citric acid (1M) exposure, sum over 6 animals): 14.0 | Cough, observation period 4-5, Mean (min 4-5 of citric acid (1M) exposure, group mean, n=6): 2.8 | Cough, observation period 4-5, individual animal (min 4-5 of citric acid (1M) exposure, individual animals 1-6): 2 (2×) and 3 (3×) and 4 | Cough, observation period 4-5, Total (min 4-5 of citric acid (1M) exposure, sum over 6 animals): 17.0 | Cough, observation period 5-6, Mean (min 5-6 of citric acid (1M) exposure, group mean, n=6): 2.7 | Cough, observation period 5-6, individual animal (min 5-6 of citric acid (1M) exposure, individual animals 1-6): 1 and 3 (3×) and 2 and 4 | Cough, observation period 5-6, Total (min 5-6 of citric acid (1M) exposure, sum over 6 animals): 16.0 | Cough, observation period 6-7, Mean (min 6-7 of citric acid (1M) exposure, group mean, n=6): 2.3 | Cough, observation period 6-7, individual animal (min 6-7 of citric acid (1M) exposure, individual animals 1-6): 1 and 2 (3×) and 4 and 3 | Cough, observation period 6-7, Total (min 6-7 of citric acid (1M) exposure, sum over 6 animals): 14.0 | Cough, observation period 7-8, Mean (min 7-8 of citric acid (1M) exposure, group mean, n=6): 1.7 | Cough, observation period 7-8, individual animal (min 7-8 of citric acid (1M) exposure, individual animals 1-6): 2 (4×) and 1 (2×) | Cough, observation period 7-8, Total (min 7-8 of citric acid (1M) exposure, sum over 6 animals): 10.0 | Cough, observation period 8-9, Mean (min 8-9 of citric acid (1M) exposure, group mean, n=6): 2.0 | Cough, observation period 8-9, individual animal (min 8-9 of citric acid (1M) exposure, individual animals 1-6): 2 (4×) and 3 and 1 | Cough, observation period 8-9, Total (min 8-9 of citric acid (1M) exposure, sum over 6 animals): 12.0 | Cough, observation period 9-10, Mean (min 9-10 of citric acid (1M) exposure, group mean, n=6): 1.7 | Cough, observation period 9-10, individual animal (min 9-10 of citric acid (1M) exposure, individual animals 1-6): 2 (3×) and 3 and 0 and 1 | Cough, observation period 9-10, Total (min 9-10 of citric acid (1M) exposure, sum over 6 animals): 10.0 | Cough, observation period 10-11, Mean (min 10-11, post exposure, group mean, n=6): 1.5 | Cough, observation period 10-11, individual animal (min 10-11, post exposure, individual animals 1-6): 1 (3×) and 2 (3×) | Cough, observation period 10-11, Total (min 10-11, post exposure, sum over 6 animals): 9.0 | Cough, observation period 11-12, Mean (min 11-12, post exposure, group mean, n=6): 0.5 | Cough, observation period 11-12, individual animal (min 11-12, post exposure, individual animals 1-6): 0 (3×) and 1 (3×) | Cough, observation period 11-12, Total (min 11-12, post exposure, sum over 6 animals): 3.0 | Cough, observation period 12-13, Mean (min 12-13, post exposure, group mean, n=6): 0.5 | Cough, observation period 12-13, individual animal (min 12-13, post exposure, individual animals 1-6): 1 (3×) and 0 (3×) | Cough, observation period 12-13, Total (min 12-13, post exposure, sum over 6 animals): 3.0 | Cough, observation period 13-14, Mean (min 13-14, post exposure, group mean, n=6): 0.2 | Cough, observation period 13-14, individual animal (min 13-14, post exposure, individual animals 1-6): 0 (5×) and 1 | Cough, observation period 13-14, Total (min 13-14, post exposure, sum over 6 animals): 1.0 | Cough, observation period 14-15, Mean (min 14-15, post exposure, group mean, n=6): 0.0 | Cough, observation period 14-15, individual animal (min 14-15, post exposure, individual animals 1-6): 0 | Cough, observation period 14-15, Total (min 14-15, post exposure, sum over 6 animals): 0.0

Reference: patent US12472170B2, “Use of glutamate 2B receptor antagonists and sigma receptor agonists as antitussives” (Seyltx, Inc., priority 2019, dated 2025)
